As a reminder, the IC50 is the midpoint of a concentration-inhibition curve.

SMILES strings stand for the structures.

A short description of series [1]: Antiproliferative activity against HEK293T cells measured after 48 to 72 hrs by CCK-8 method. To be noted: human. Background: Tetrazolium dyes change colour on reduction, which living cells bring about.
The test system of another series is Huh-7. Description: Antiproliferative activity against human Huh-7 cells measured after 48 to 72 hrs by CCK-8 method.
A further series relates to MKN-28. Nature of the series: Antiproliferative activity against human MKN-28 cells measured after 48 to 72 hrs by CCK-8 method.
A short description of series [2]: Antiproliferative activity against human THLE-2 cells measured after 48 to 72 hrs by CCK-8 method.
Another series concerns PC-9. Nature of the series: Antiproliferative activity against human PC-9 cells measured after 48 to 72 hrs by CCK-8 method.
The next series deals with AGS. Nature of the series: Antiproliferative activity against human AGS cells measured after 48 to 72 hrs by CCK-8 method.
The next series concerns SW-620. Description: Antiproliferative activity against human SW620 cells measured after 48 to 72 hrs by CCK-8 method.

`COc1ccc(CNc2nc(N(CCO)CCO)nc3c2ncn3C(C)C)cc1`: the IC50 in series [1] came out at 11.5 µM; with Huh-7, 5.78 µM; with MKN-28, 8.73 µM; in series [2], 15 µM; in the series on PC-9 it was 7.28 µM; in the series on AGS, 6.84 µM. This molecule also returned a half-maximal inhibitory concentration (IC50) in the series with SW-620 of 2.07 µM.

(Values after ChEMBL document CHEMBL6096676, “TarIKGC: A Target Identification Tool Using Semantics-Enhanced Knowledge Graph Completion with Application to CDK2 Inhibitor Discovery” (J Med Chem, 2025).)
